Oligonucleotides are written 5' to 3', each unit as a sugar letter and its base; * is a phosphorothioate linkage, no mark a phosphodiester; rarer units and linkages stand in square brackets, end groups in braces. Plain capitals give the bases only. d = 2'-deoxy (DNA); m = 2'-O-methyl
Tests used:
Format in all cases: cell-based, human
XIAP RNA = XIAP RNA knock-down in T24 cells (TaqMan quantitative PCR)
Text: (§1) We used TaqMan quantitative PCR (described below) to assay for changes in mRNA levels after oligonucleotide treatment. We employed ELISA for determining XIAP protein levels and western blotting for determining HIAP1 protein levels. Transfection conditions were optimized with Lipofectamine plus or Lipofectamine 2000 (Life Technologies, Canada) on T24 bladder carcinoma cells or H460 non-small cell lung carcinoma cells, or lipofectin on SF-295 glioblastoma cells, using a fluorescein-tagged sense oligonucleotide (5′-mGmAGAAGATGACTGGTAAmCmA-3′; SEQ ID NO: 261) from XIAP spanning the start codon as a control. The results were visualized and gauged by epi-fluorescence microscopy. In the case of T24 cells, transfections were further optimized based on the ability of a published oligonucleotide to downregulate survivin expression (Li et al., Nat. Cell Biol. 1:461-466, 1999) (5′-U/TGTGCTATTCTGTGAAU/TU/T-3′ SEQ ID NO: 262). We optimized the transfection conditions based on the TaqMan results of survivin RNA knock-down detected with PCR primers and fluorescent probe, described in detail below. […] We then applied these conditions to screen for XIAP protein knock-down using the oligo library against T24 cells.
(§2) RNA was extracted from cells lysed in RLT buffer (QIAGEN, Valencia, Calif.), and purified using QIAGEN RNeasy columns/kits. Real-time quantitative PCR was performed on a Perkin-Elmer ABI 7700 Prism PCR machine. RNA was reverse transcribed and amplified according to the TaqMan Universal PCR Master Mix protocol of PE Biosystems, using primers and probes designed to specifically recognize XIAP, HIAP1, survivin, or GAPDH. For human survivin, the forward primer was 5′-[…]-3′ (SEQ ID NO: 263), the reverse primer was 5′-GAAAGGAAAGCGCAACCG-3′ (SEQ ID NO: 264), and the probe was 5′-(FAM)[…](TAMRA)-3′ (SEQ ID NO: 265). For human HIAP1, the forward primer was 5′-[…]-3′ (SEQ ID NO: 266), the reverse primer was 5′-[…]-3′ (SEQ ID NO: 267), and the probe was 5′-(FAM)[…](TAMRA)-3′ (SEQ ID NO: 268). For human XIAP, the forward primer was 5′-[…]-3′ (SEQ ID NO: 269), the reverse primer was 5′-[…]-3′ (SEQ ID NO: 270), and the probe was 5′-(FAM)[…](TAMRA)-3′ (SEQ ID NO: 271). For human GAPDH, the forward primer was 5′-GAAGGTGAAGGTCGGAGTC-3′ (SEQ ID NO: 272), the reverse primer was 5′-GAAGATGGTGATGGGATTC-3′ (SEQ ID NO: 273), and the probe was 5′-(JOE)[…](TAMRA)-3′ (SEQ ID NO: 274). FAM is 6-carboxyfluoroscein, JOE is 6-carboxy-4,5-dichloro-2,7-dimethoxyfluoroscein, and TAMRA is 6-carboxy-N,N,N′,N′-tetramethylrhodamine. FAM and JOE are 5′ reporter dyes, while TAMRA is a 3′ quencher dye.
(§3) Relative quantification of gene expression was performed as described in the PE Biosystems manual using GAPDH as an internal standard. The comparative Ct (cycle threshold) method was used for relative quantitation of IAP mRNA levels compared to GAPDH mRNA levels. Briefly, real-time fluorescence measurements were taken at each PCR cycle and the threshold cycle (Ct) value for each sample was calculated by determining the point at which fluorescence exceeded a threshold limit of 30 times the baseline standard deviation. The average baseline value and the baseline SD are calculated starting from the third cycle baseline value and stopping at the baseline value three cycles before the signal starts to exponentially rise. The PCR primers and/or probes for the specific IAPs were designed to span at least one exon-intron boundary separated by 1 kb or more of genomic DNA, to reduce the possibility of amplifying and detecting genomic DNA contamination. The specificity of the signal, and possible contamination from DNA, were verified by treating some RNA samples with either DNase or RNase, prior to performing the reverse transcription and PCR reaction steps.
The XIAP synthetic library of 96 antisense oligonucleotides was first screened for decreases in XIAP protein levels. […]

XIAP protein = XIAP protein knock-down in T24 cells (XIAP ELISA, relative to total protein); conditions: for XIAP protein levels relative to total protein, compared to mock transfection (in words): first screen of the library
Text: as §1
A standard colorimetric XIAP ELISA assay was performed using an affinity-purified rabbit polyclonal antibody to XIAP as a capture antibody, and was detected with a XIAP monoclonal antibody (MBL, Japan) and a biotinylated anti-mouse Ig antibody and horseradish peroxidase-conjugated streptavidin and TMB substrate. Alternatively, a polyclonal XIAP or HIAP1 antibody may be used to measure XIAP or HIAP1 protein levels, respectively.
The XIAP synthetic library of 96 antisense oligonucleotides was first screened for decreases in XIAP protein levels. Specifically, T24 cells (1.5×10^4 cells/well) were seeded in wells of a 96-well plate on day 1, and were cultured in antibiotic-free McCoy's medium for 24 hours. On day 2, the cells were transfected with XIAP antisense oligonucleotides as described above (oligonucleotides are labeled according to their plated position, i.e., A1 to H12, and include two repeats, A13 and B13 that contain lyophilized DNA pellets that stuck to the sealing membrane). Briefly, the nucleobase oligomers were diluted in 10 μl/well of serum-free, antibiotic-free McCoy's medium and then PLUS reagent was added. Lipofectamine was diluted in 10 μl/well of serum-free, antibiotic-free McCoy's medium, and both mixes were incubated for 15 minutes at room temperature. The mixes were then combined and incubated for 15 minutes at room temperature.
In the meantime, the complete medium was removed from the cells and 50 μl/well of serum-free, antibiotic-free medium was added to the cells. The transfection mixes were added to the well, and the cells were incubated for three hours. Then 30 μl/well of serum-free, antibiotic-free medium and 100 μl/well of antibiotic-free complete medium, containing 20% fetal bovine serum were added to each well.
At day 3, XIAP RNA levels were measured using quantitative real-time PCR techniques, as described above. At day 4, XIAP protein levels were measured by ELISA (FIGS. 1A, 1C, 1E, 1G, 1I, and 1K), and total cellular protein was measured biochemically (FIGS. 1B, 1D, 1F, 1H, 1J, and 1L; used to normalize the XIAP protein levels). The results were compared to a mock transfection sample (treated with the transfection agent but no oligonucleotide DNA was added, and then processed as for the other samples). Time course experiments determined that the optimal time for protein knock-down to be around 12 to 24 hours. […]

XIAP mRNA [1] = assay: XIAP mRNA knock-down in H460 cells (real-time RT-PCR / TaqMan)
Summary of the method: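 NCI-H460 cells transfected with phosphorothioate antisense oligonucleotides via Lipofectamine 2000; RNA isolated after 6 h treatment. XIAP mRNA quantified by one-step TaqMan real-time RT-PCR, comparative Ct (threshold 30× baseline SD), normalized to GAPDH and expressed relative to untreated control cells.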

XIAP mRNA [2] = assay: as above; conditions: 2 × 2 MBO; NCI-H460 cells, 9 hours post-transfection; relative level (mock control 1.01)
HIAP1 mRNA = HIAP1 mRNA in SF295 cells, basal conditions (TaqMan); design: decrease of HIAP1 mRNA compared to mock or scrambled survivin control: concentration or dose not given beside the values; conditions: for HIAP1 mRNA levels (in words): SF295 cells (FIG. 21); for decrease of HIAP1 mRNA compared to mock or scrambled survivin control: SF295 cells, six hours after transfection
Description: as §2, §3
A library of 15 HIAP1 antisense nucleobase oligomers as oligonucleotides was screened for protein knock-down by western blot analysis and for RNA knock-down by TaqMan, using the primers and probes described in Example 3, above, under two different conditions. HIAP1 RNA levels may be detected using standard Northern blot analyses or RT-PCR techniques. The antisense oligonucleotides were administered to cells under basal conditions or under cycloheximide-induction conditions (24 hour treatment with sub-toxic doses). Cycloheximide (CHX) can lead to a 10- to 200-fold induction of HIAP1 mRNA depending on the cell line treated. […] This effect of CHX is via two distinct mechanisms of action. First, CHX activates NFkB, a known transcriptional inducer of HIAP1, by blocking the de novo synthesis of a labile protein, IkB, which is an inhibitor of NFkB. This effect is mimicked by puromycin, another protein synthesis inhibitor, and by TNF-alpha, which induces a signaling cascade leading to the phosphorylation, ubiquination, and degradation of IkB.
SF295 glioblastoma cells were transfected with lipofectin and oligonucleotide (scrambled survivin, no oligonucleotide, antisense APO 1 to APO 15) or left untreated. […]

HIAP1 protein = HIAP1 protein in cycloheximide-induced SF295 cells (western blot)
Text: HIAP1 was detected on a western immunoblot using an affinity-purified anti-rat HIAP1 rabbit polyclonal antibody as a primary antibody and was detected by ECL (Amersham) on X-ray film with a secondary horseradish-peroxidase-conjugated anti-rabbit Ig antibody and a chemiluminescent substrate. The anti-HIAP1 polyclonal antibody is raised against a GST-fusion of the rat HIAP1. This antibody cross-reacts with both human and murine HIAP1 and HIAP2.
The effect of HIAP1 antisense nucleobase oligomers on HIAP1 protein and mRNA expression was also examined in cells induced to express HIAP1. SF295 cells were transfected with oligonucleotides, or were mock transfected. The transfected cells were then treated with 10 μg/ml cycloheximide for 24 hours to induce 70 kDa HIAP1 mRNA and protein. Protein levels were measured by western blot analysis with an anti-HIAP1 polyclonal antibody, and normalized against actin protein in a re-probing of the same blots. The densitometric scan results were plotted against the mock results (set at 100%) in FIG. 22B. […] The transfection process itself (e.g., mock or scrambled survivin) induces HIAP1 protein compared to the untreated sample as shown on the western immunoblot.

Sequence | XIAP down-regulation T24 RNA (XIAP RNA) | XIAP down-regulation T24 protein (XIAP protein) | XIAP protein levels relative to total protein, compared to mock transfection (in words) (XIAP protein) | XIAP down-regulation H460 RNA (XIAP mRNA [1]) | XIAP RNA (XIAP mRNA [2]) | HIAP1 mRNA levels (in words) (HIAP1 mRNA) | decrease of HIAP1 mRNA compared to mock or scrambled survivin control (HIAP1 mRNA) | activity in the HIAP1 protein and mRNA assays (HIAP1 protein)
GTATAAAGAAACCCTGCTC (antisense; sugars from the 5' end m2 d15 m2, backbone and T or U not given here; further chemistry not fully specified) [Code D4] | 12% | 43% | some decrease | 51% | 0.48 |  |  | 
CCAGTGGTTTGCAAGCATG (chemistry not given here) [APO 7] |  |  |  |  |  | did not cause a stress-induced increase in HIAP1 mRNA | ~50% | high activity, or had significant activity in both the protein and mRNA assays
CAAGTACTCACACCTTGGA (chemistry not given here) [APO 12] |  |  |  |  |  | did not cause a stress-induced increase in HIAP1 mRNA | ~50% | high activity, or had significant activity in both the protein and mRNA assays
GGGCTCAAGTAATTCTCTT (chemistry not given here) [APO 15] |  |  |  |  |  | did not cause a stress-induced increase in HIAP1 mRNA | ~50% | high activity, or had significant activity in both the protein and mRNA assays
GAAAGGACTTTACTTTATC (antisense; sugars from the 5' end m2 d15 m2, backbone, methylation of C and T or U not given here; further chemistry not fully specified) [Code D8] | 38% | 26% | some decrease | 49% | 0.55 |  |  | 
GTTGTTCCCAAGGGTCTTC (antisense; sugars from the 5' end m2 d15 m2, backbone, methylation of C and T or U not given here; further chemistry not fully specified) [Code E8] | 72% | 56% |  | 44% |  |  |  | 
TGCCAGTGTTGATGCTGAA (antisense; chemistry not fully specified) [Code C4] | 28% | 56% | some decrease | 77% | 0.22 |  |  | 
GAAATTTAGTGGCCAGGAA (chemistry not given here) [APO 8] |  |  |  |  |  | did not cause a stress-induced increase in HIAP1 mRNA | ~50% | high activity, or had significant activity in both the protein and mRNA assays
AATATGTAAACTGTGATGC (mA*mAdTdAdTdGdTdAdAdAdCdTdGdTdGdAdTmG*mC; antisense) [Code C2] | 36% | 45% | some decrease | 70% | 0.33 |  |  | 
CTTGTCCACCTTTTCTAAA (antisense; sugars from the 5' end m2 d15 m2, backbone and T or U not given here; further chemistry not fully specified) [Code E3] | 53% | 64% | some decrease | 55% | 0.48 |  |  | 

Reference: patent US8012944B2, “Method for treating cancer using IAP antisense oligomer and chemotherapeutic agent” (Pharmascience Inc., priority 2003, dated 2011)
